Measurements published in patent publication US20230113037A1 (Bayer Aktiengesellschaft, priority 2019, published 2023).
Several values for one entry are separate records, joined by “and”; a condition that tells them apart may be missing. Equal values may be shown once. Read-outs that look alike come from different tables or passages of the source.

What was measured:
AHR [1] = target: T1, AHR (Mus musculus, UniProt P30561); assay: In vitro assay 3: antagonism in mouse cell line (AHR transactivation, firefly luciferase reporter, kynurenic acid prestimulated); format: cell-based
T1 sequence (P30561 1-848 P471L/N533S/M589L): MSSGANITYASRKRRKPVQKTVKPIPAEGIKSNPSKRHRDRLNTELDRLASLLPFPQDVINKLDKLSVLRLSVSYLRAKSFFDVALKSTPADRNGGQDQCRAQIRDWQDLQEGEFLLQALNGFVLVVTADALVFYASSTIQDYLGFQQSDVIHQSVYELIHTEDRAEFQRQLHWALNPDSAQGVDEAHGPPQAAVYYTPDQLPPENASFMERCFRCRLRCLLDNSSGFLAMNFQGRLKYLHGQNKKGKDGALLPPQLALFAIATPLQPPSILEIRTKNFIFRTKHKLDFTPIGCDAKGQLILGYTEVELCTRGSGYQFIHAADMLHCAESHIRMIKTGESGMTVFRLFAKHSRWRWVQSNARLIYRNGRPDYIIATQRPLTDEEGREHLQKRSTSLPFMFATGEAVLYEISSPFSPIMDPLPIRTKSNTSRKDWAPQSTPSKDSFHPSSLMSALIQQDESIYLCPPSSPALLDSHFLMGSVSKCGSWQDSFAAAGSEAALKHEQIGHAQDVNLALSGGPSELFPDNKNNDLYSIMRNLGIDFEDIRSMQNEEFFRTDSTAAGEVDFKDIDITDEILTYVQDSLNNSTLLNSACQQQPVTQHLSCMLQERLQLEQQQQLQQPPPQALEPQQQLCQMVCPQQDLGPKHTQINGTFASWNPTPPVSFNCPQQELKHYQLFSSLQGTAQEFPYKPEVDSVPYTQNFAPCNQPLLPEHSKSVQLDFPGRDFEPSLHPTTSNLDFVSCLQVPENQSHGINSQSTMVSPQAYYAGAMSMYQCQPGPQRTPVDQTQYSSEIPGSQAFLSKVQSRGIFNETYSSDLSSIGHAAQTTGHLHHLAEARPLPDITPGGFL
Summary of the method: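 Mouse cells stably carrying a DRE-driven AHR-inducible firefly luciferase reporter were prestimulated with the endogenous agonist kynurenic acid before compound addition. Luciferase read by SteadyGlo; cells without kynurenic acid served as full-inhibition control, with normalization to positive and negative controls. Repeat tests reported as mean or median.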

AHR [2] = target: T2, AHR (Homo sapiens, UniProt P35869); assay: In vitro assay 1: antagonism in human cell line (AHR transactivation, firefly luciferase reporter, kynurenic acid prestimulated); format: cell-based; settings: AHR Antagonism Human IC50 [M]
T2 construct: U87 MG glioblastoma cells (ATCC #HTB-14) endogenously expressing AHR; endogenous in cells; host or cells: U87 MG glioblastoma cells (ATCC #HTB-14)
T2 sequence (P35869 11-848): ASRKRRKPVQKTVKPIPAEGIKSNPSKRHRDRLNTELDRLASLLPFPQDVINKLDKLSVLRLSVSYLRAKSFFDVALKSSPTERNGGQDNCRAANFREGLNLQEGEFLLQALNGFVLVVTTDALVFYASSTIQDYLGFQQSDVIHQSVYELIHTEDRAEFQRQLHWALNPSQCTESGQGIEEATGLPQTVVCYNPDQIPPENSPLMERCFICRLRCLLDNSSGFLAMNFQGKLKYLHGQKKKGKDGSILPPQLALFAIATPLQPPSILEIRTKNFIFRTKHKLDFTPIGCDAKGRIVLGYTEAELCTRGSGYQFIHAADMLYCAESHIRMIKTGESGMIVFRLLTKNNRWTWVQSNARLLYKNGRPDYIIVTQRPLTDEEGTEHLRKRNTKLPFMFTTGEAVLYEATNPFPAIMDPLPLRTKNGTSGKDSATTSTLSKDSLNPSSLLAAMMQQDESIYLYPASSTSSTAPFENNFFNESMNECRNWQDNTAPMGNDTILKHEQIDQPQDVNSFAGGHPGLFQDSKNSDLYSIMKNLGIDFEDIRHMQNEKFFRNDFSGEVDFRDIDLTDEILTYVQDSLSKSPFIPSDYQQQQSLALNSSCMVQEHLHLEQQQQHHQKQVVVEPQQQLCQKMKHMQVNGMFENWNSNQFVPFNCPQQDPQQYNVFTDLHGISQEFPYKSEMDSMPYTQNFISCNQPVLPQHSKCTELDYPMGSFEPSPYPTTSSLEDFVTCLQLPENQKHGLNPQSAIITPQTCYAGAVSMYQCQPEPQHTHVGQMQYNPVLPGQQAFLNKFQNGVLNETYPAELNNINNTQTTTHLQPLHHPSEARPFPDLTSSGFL
Summary of the method: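 U87 MG glioblastoma cells with endogenous AHR, stably carrying a DRE-driven firefly luciferase reporter and constitutive Renilla reporter, prestimulated with kynurenic acid before compound addition. Firefly and Renilla read by dual luciferase; Renilla flags toxicity; normalized to controls (150 μM kynurenic acid + 5 μM staurosporine as full inhibition); repeat values averaged or median.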

[3] = mouse Hepa 1c1c7 cells, 200 μM kynurenic acid, 20 hours, read-out: AHR Antagonism Mouse IC50
[4] = Hepa 1c1c7 cells, 200 μM kynurenic acid, 20 hours, firefly luciferase reporter, read-out: AHR Antagonism Mouse IC50

| SMILES | IC50 (AHR [1]; [3]) | IC50 (AHR [2]) | IC50 (AHR [2]; firefly luciferase reporter) | further results |
| --- | --- | --- | --- | --- |
| O=C1NCCCC[C@@H]1Nc1nc2ccccc2c2nc(-c3ccccc3OC(F)F)nn12 [Example 471, (3S)-3-({2-[2-(difluoromethoxy)phenyl][1,2,4]triazolo[1,5-c]quinazolin-5-yl}amino)azepan-2-one] | 5.26 nM | 5.6e-08 M | – | – |
| CC[C@H](Nc1nc2ccccc2c2nc(-c3cn(C)nn3)nn12)C(N)=O [Example 690, (2S)-2-{[2-(1-methyl-1H-1,2,3-triazol-4-yl)[1,2,4]triazolo[1,5-c]quinazolin-5-yl]amino}butanamide] | – | > 2e-05 M | – | IC50 (AHR [1]; read-out: AHR Antagonism Mouse IC50, mouse Hepa 1c1c7 cells, 200 μM kynurenic acid, 20 hours): > 20000 nM |
| C[C@@H](Nc1nc2c(Br)cccc2c2nc(-c3cnn(C)c3)nn12)C(=O)N1C[C@@H]2C[C@H]1CN2C [Example 900] | – | – | 4.4e-08 M | IC50 (AHR [1]; [4]): 72.3 nM |
| COc1cccc(-c2nc3c4cc(F)ccc4nc(N[C@@H]4CCCCNC4=O)n3n2)c1 [Example 159, (3R)-3-{[9-fluoro-2-(3-methoxyphenyl)[1,2,4]triazolo[1,5-c]quinazolin-5-yl]amino}azepan-2-one] | 0.227 nM | 1.03e-09 M | – | – |
| COc1ccc(-c2nc3c4ccccc4nc(N[C@H](C)C(=O)NCCN(C)C)n3n2)cc1 [Example 787, N-[2-(dimethylamino)ethyl]-N^2-[2-(4-methoxyphenyl)[1,2,4]triazolo[1,5-c]quinazolin-5-yl]-D-alaninamide] | – | – | 2.26e-08 M | IC50 (AHR [1]; [4]): 38.2 nM |
| CC[C@@H](Nc1nc2ccccc2c2nc(-c3cscc3OC)nn12)C(N)=O [Example 338, (2R)-2-{[2-(4-methoxythiophen-3-yl)[1,2,4]triazolo[1,5-c]quinazolin-5-yl]amino}butanamide] | 53.9 nM | 1.91e-07 M | – | – |
| Cc1cc(-c2nc3c4ccccc4nc(N[C@@H]4CCCCNC4=O)n3n2)c(C)n1C [Example 606, (3R)-3-{[2-(1,2,5-trimethyl-H-pyrrol-3-yl)[1,2,4]triazolo[1,5-c]quinazolin-5-yl]amino}azepan-2-one] | 3.08 nM | 9.02e-09 M | – | – |
| CS(=O)(=O)c1ccc(-c2nc3c4cccc(Br)c4nc(N[C@@H]4CNCCNC4=O)n3n2)cc1 [Example 715, (6R)-6-({7-bromo-2-[4-(methanesulfonyl)phenyl][1,2,4]triazolo[1,5-c]quinazolin-5-yl}amino)-1,4-diazepan-5-one] | 14.8 nM | 1.13e-08 M | – | – |
| C[C@H]1CN(C(=O)[C@@H](C)Nc2nc3c(Br)cccc3c3nc(-c4cnn(C)c4)nn23)CCO1 [Example 908, (2R)-2-{[7-bromo-2-(1-methyl-1H-pyrazol-4-yl)[1,2,4]triazolo[1,5-c]quinazolin-5-yl]amino}-1-[(2S)-2-methylmorpholin-4-yl]propan-1-one] | – | – | 2.87e-08 M | IC50 (AHR [1]; [4]): 18.8 nM |
| O=C1NCCCC[C@H]1Nc1nc2ccccc2c2nc(-c3cnn(C4COC4)c3)nn12 [Example 595, (3R)-3-({2-[1-(oxetan-3-yl)-1H-pyrazol-4-yl][1,2,4]triazolo[1,5-c]quinazolin-5-yl}amino)azepan-2-one] | 34 nM | 5.18e-08 M | – | – |
| Cc1nn(C)c(C)c1-c1nc2c3cccc(C(F)(F)F)c3nc(N[C@@H]3CCCCNC3=O)n2n1 [Example 750, (3R)-3-{[7-(trifluoromethyl)-2-(1,3,5-trimethyl-1H-pyrazol-4-yl)[1,2,4]triazolo[1,5-c]quinazolin-5-yl]amino}azepan-2-one] | 1.41 nM | 3.56e-09 M | – | – |
| Cn1cc(-c2nc3c4ccccc4nc(N[C@@H]4CCCCNC4=O)n3n2)cn1 [Example 12, (3R)-3-{[2-(1-methyl-1H-pyrazol-4-yl)[1,2,4]triazolo[1,5-c]quinazolin-5-yl]amino}azepan-2-one] | 8.31 nM | 1.31e-08 M | – | – |
| COc1ccc(-c2nc3c4ccccc4nc(N[C@@H]4CCNC4=O)n3n2)cc1 [Example 39, (3R)-3-{[2-(4-methoxyphenyl)[1,2,4]triazolo[1,5-c]quinazolin-5-yl]amino}pyrrolidin-2-one] | 53.6 nM | 1.59e-08 M | – | – |
| CCCCNC(=O)[C@@H](C)Nc1nc2c(Br)cccc2c2nc(-c3cnn(C)c3)nn12 [Example 794, N^2-[7-bromo-2-(1-methyl-1H-pyrazol-4-yl)[1,2,4]triazolo[1,5-c]quinazolin-5-yl]-N-butyl-D-alaninamide] | – | – | 1.76e-08 M | IC50 (AHR [1]; [4]): 21.2 nM |
| COc1cccc(-c2nc3c4ccccc4nc(N[C@@H](CO)C(N)=O)n3n2)c1 [Example 85, N^2-[2-(3-methoxyphenyl)[1,2,4]triazolo[1,5-c]quinazolin-5-yl]-L-serinamide] | 229 nM | 4.95e-07 M | – | – |
| CC(C)Oc1ccc(-c2nc3c4ccccc4nc(N[C@@H]4CNCCNC4=O)n3n2)cc1 [Example 415, (6R)-6-[(2-{4-[(propan-2-yl)oxy]phenyl}[1,2,4]triazolo[1,5-c]quinazolin-5-yl)amino]-1,4-diazepan-5-one] | 6.47 nM | 1.85e-08 M | – | – |
| C[C@@H](Nc1nc2c(Br)cccc2c2nc(-c3cnn(C)c3)nn12)C(=O)N1CC2(CN(C(=O)OC(C)(C)C)C2)C1 [Example 921, tert-butyl 6-{N-[7-bromo-2-(1-methyl-1H-pyrazol-4-yl)[1,2,4]triazolo[1,5-c]quinazolin-5-yl]-D-alanyl}-2,6-diazaspiro[3.3]heptane-2-carboxylate] | – | – | 4.24e-08 M | IC50 (AHR [1]; [4]): 98.3 nM |
| COc1ccc(-c2nc3c4cccc(Br)c4nc(N[C@H](C)C(=O)NCCN4CCN(C(=O)OC(C)(C)C)CC4)n3n2)cc1 [Example 890, tert-butyl 4-[2-({N-[7-bromo-2-(4-methoxyphenyl)[1,2,4]triazolo[1,5-c]quinazolin-5-yl]-D-alanyl}amino)ethyl]piperazine-1-carboxylate] | – | – | 4.05e-09 M | IC50 (AHR [1]; [4]): 9.3 nM |
| N#Cc1cccc2c1nc(N[C@@H]1CNCCNC1=O)n1nc(-c3cnn(C(F)F)c3)nc21 [Example 934, 2-[1-(difluoromethyl)-1H-pyrazol-4-yl]-5-{[(6R)-5-oxo-1,4-diazepan-6-yl]amino}[1,2,4]triazolo[1,5-c]quinazoline-7-carbonitrile] | – | – | 2.39e-07 M | IC50 (AHR [1]; read-out: AHR Antagonism Mouse IC50, Hepa 1c1c7 cells, 200 μM kynurenic acid, 20 hours, firefly luciferase reporter): 116 nM |
| CC[C@@H](Nc1nc2ccccc2c2nc(-c3ccc(C#N)cc3)nn12)C(N)=O [Example 386, (2R)-2-{[2-(4-cyanophenyl)[1,2,4]triazolo[1,5-c]quinazolin-5-yl]amino}butanamide] | 0.346 nM | 6.02e-10 M | – | – |
| CCCCNC(=O)CNc1nc2ccccc2c2nc(-c3ccccc3OC(F)(F)F)nn12 [Example 466, N-butyl-N^2-{2-[2-(trifluoromethoxy)phenyl][1,2,4]triazolo[1,5-c]quinazolin-5-yl}glycinamide] | 107 nM | 1.26e-07 M | – | – |
| COc1ccc(-c2nc3c4c(C5CNC5)cccc4nc(N[C@@H]4CCCCNC4=O)n3n2)cc1 [Example 647, (3R)-3-{[10-(azetidin-3-yl)-2-(4-methoxyphenyl)[1,2,4]triazolo[1,5-c]quinazolin-5-yl]amino}azepan-2-one] | > 20000 nM and 12800 nM | 6.34e-06 M | – | – |
